The record followed here is patent US10919896B2, “Preparation and uses of pyrimidinone derivatives” (Cancer Research Technology Limited, priority 2016, dated 2021).

Chain of Cdc7/ASK (O00311 whole entry): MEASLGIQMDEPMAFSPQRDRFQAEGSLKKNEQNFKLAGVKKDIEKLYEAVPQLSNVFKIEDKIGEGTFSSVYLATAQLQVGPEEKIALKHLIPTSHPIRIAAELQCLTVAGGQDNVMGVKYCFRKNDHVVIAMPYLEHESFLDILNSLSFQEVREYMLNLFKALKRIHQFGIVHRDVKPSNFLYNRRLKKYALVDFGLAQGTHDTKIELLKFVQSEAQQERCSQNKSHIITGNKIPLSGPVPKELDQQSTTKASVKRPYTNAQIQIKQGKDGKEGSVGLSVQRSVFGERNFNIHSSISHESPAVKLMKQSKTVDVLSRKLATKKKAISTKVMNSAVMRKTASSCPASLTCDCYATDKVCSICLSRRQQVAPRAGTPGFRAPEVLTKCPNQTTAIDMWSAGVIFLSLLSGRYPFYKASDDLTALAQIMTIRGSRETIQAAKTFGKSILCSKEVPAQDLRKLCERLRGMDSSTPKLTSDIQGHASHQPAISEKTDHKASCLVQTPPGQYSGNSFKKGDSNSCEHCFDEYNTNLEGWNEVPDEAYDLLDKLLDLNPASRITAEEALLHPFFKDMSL
Chain of Cdc7/ASK (Q9UBU7 whole entry partner): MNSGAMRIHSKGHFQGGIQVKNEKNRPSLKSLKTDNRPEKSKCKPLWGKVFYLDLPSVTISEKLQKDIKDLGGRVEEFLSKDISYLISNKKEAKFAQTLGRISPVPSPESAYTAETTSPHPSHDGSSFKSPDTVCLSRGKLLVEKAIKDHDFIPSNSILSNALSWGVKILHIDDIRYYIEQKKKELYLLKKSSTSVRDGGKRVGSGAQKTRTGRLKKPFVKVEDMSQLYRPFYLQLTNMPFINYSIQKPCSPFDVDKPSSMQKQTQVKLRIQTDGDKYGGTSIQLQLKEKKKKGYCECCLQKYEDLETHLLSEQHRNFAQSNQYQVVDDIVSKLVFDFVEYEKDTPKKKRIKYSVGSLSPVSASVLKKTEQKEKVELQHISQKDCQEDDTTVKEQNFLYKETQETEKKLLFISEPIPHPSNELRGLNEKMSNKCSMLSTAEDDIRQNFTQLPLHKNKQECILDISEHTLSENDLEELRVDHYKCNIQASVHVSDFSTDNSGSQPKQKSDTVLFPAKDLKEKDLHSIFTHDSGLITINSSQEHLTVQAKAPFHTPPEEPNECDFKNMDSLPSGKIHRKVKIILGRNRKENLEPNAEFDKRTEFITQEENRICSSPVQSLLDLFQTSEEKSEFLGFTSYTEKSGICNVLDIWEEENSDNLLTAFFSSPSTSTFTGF

In this experiment the target is Cdc7/ASK (Homo sapiens, UniProt O00311). The experiment is described as follows: Cdc7 Biochemical Assay Method 1: 384 well ELISA, whole protein substrate MCM2, antibody against Phospho MCM2 (S53). Further details: purchased. The settings on record: 2 μM ATP, read-out: Biochemical Method 1 (pIC50) (converted). An outline of the steps:
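MCM2 protein substrate was coated on nickel-chelate plates, then Cdc7/ASK was added with 2 μM ATP in 50 mM Tris-HCl pH 8.5, 10 mM MgCl2, 1 mM DTT, 4% DMSO, 90 min at room temperature. Phospho-MCM2 (S53) was detected by ELISA with an AP secondary and PNPP absorbance. IC50 was derived from % inhibition versus no-compound and no-enzyme controls.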
A general note: ELISA stands for enzyme-linked immunosorbent assay.
In the case of `C[C@@H]1CNCCN1c1nc(-c2ccncc2)[nH]c(=O)c1Cl` [Compound 364], the IC50 was 0.389 nM.

Regarding `C[C@H]1CN(c2nc(-c3ccncc3)[nH]c(=O)c2Cl)CCN1` [Compound 130], the IC50 was 2.57 nM. On to `CC(C)[C@H]1CN(c2nc(-c3ccncc3)[nH]c(=O)c2F)CCN1` [Compound 308], for which the IC50 was 0.794 nM.

Regarding `O=c1[nH]c(-c2ccncc2)nc(N2CCN(CC(F)F)CC2)c1Cl` [Compound 147], the IC50 is 4.27 nM.

On to `O=c1[nH]c(-c2ccnc(F)c2)nc(N2CCCC(F)(F)C2)c1Cl` [Compound 90, 5-chloro-4-(3,3-difluoro-1-piperidyl)-2-(2-fluoro-4-pyridyl)-1H-pyrimidin-6-one], for which the IC50 is 0.851 nM. `CC(C)[C@H]1CN(c2nc(-c3ccnc(F)c3)[nH]c(=O)c2Cl)CCN1` [Compound 170]: the IC50 is 1.1 nM. On to `NC[C@H]1CCCN(c2nc(-c3ccnc(F)c3)[nH]c(=O)c2Cl)C1` [Compound 362], for which the IC50 is 1.66 nM.

For `CC(C)(C)[C@H]1CN(c2nc(-c3ccncc3)[nH]c(=O)c2F)CCN1` [Compound 185], the IC50 is 0.776 nM. Under `O=c1[nH]c(-c2ccnc(F)c2)nc(N2CCOCC2)c1Cl` [Compound 316] stands 1.32 nM.

With `O=c1[nH]c(-c2ccnc(F)c2)nc(N2CCNCC2)c1Cl` [Compound 360], the IC50 was 1.51 nM. Under `O=c1[nH]c(-c2ccncc2)nc(N2CCN[C@H](C(F)(F)F)C2)c1Cl` [Compound 139] stands 9.55 nM; under `O=c1[nH]c(-c2ccncc2)nc(N2CCN[C@@H](C(F)(F)F)C2)c1Cl` [Compound 180], 1.45 nM. Turning to `O=c1[nH]c(-c2ccncc2)nc(N2CCCOCC2)c1Cl` [Compound 186], the IC50 was 3.09 nM. As for `O=c1[nH]c(-c2ccnc(F)c2)nc(N2CCN[C@@H](C(F)(F)F)C2)c1Cl` [Compound 314], the IC50 is 1.12 nM.

`NC[C@@H]1CCCN(c2nc(-c3ccnc(F)c3)[nH]c(=O)c2Cl)C1` [Compound 363]: the IC50 is 4.68 nM.
